Measurements from patent publication US9770026B2, “Substituted pyrimidine compound and uses thereof” (Shenyang Sinochem Agrochemicals R&D Co., Ltd., priority 2012, dated 2017).

How the values were obtained:
[1] = system: cucumber downy mildew; assay: protectant activity in vivo against cucumber downy mildew; details: Cucumis sativus, 168 h; for pest or weed control at 400 µg/mL: read-out: control effect against cucumber downy mildew (%), 400 mg/L
[2] = system: Diamond back moth; assay: insecticidal activity against diamond back moth, airbrush spray; assay type: in vivo; details: 72 h; for pest or weed control at 600 µg/mL: 600 mg/L
Outline: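 Airbrush leaf-disc spray test: both faces of 2 cm cabbage discs received 0.5 ml of test solution at 0.7 kg/cm^2. Solutions were made in acetone:methanol (1:1) and brought to concentration with 0.1% Tween 80 in water. Ten second-instar larvae per disc, triplicates, were held at 25° C and 60˜70% R.H., with mortality recorded at 72 hrs.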

[3] = system: corn rust; assay: protectant activity in vivo against corn rust; details: Zea mays, 168 h; for pest or weed control at 400 µg/mL: read-out: control effect against corn rust (%), 400 mg/L
[4] = system: armyworm; assay: bioactivity test against armyworm, airbrush spray; assay type: in vivo; details: 72 h; for pest or weed control at 10 µg/mL: 10 mg/L; for pest or weed control at 10 µg/mL / pest or weed control at 100 µg/mL / pest or weed control at 600 µg/mL: read-out: Insecticidal activity against armyworm (%); for pest or weed control at 100 µg/mL: 100 mg/L; for pest or weed control at 600 µg/mL: 600 mg/L
[5] = system: rice blast; assay: microbe, parasite or virus in culture; assay type: cell-based; details: Pyricularia oryzae; for inhibition at 25 ppm: read-out: inhibition rate against rice blast, 25 ppm, in vitro
[6] = system: Green peach aphids (Myzus Persicae Sulzer); assay: bioactivity test against green peach aphid, airbrush foliar spray; assay type: in vivo; details: Myzus persicae, foliar, 48 h; for pest or weed control at 2.5 µg/mL: 2.5 mg/L; for pest or weed control at 5 µg/mL: 5 mg/L; for pest or weed control at 10 µg/mL: 10 mg/L; for pest or weed control at 100 µg/mL: 100 mg/L; for pest or weed control at 600 µg/mL: 600 mg/L
Outline: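 Death rate was scored at 48 hrs, held at 25±1 C and 60±5% RH, following airbrush foliar spray (0.5 mL, 10 psi) onto cabbage leaf discs bearing about 15-30 aphids. Test solutions: compound dissolved in 1:1 acetone:methanol, brought to concentration with 0.1% tween 80 water.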

[7] = system: cucumber gray mold; assay: fungicidal activity in vitro (inhibition rate) against cucumber gray mold; assay type: cell-based; details: 25 ppm, in vitro; read-out: inhibition rate against cucumber gray mold
[8] = system: carmine spider mite; assay: bioactivity test against carmine spider mite, airbrush spray; assay type: in vivo; details: Tetranychus cinnabarinus, 72 h
Outline: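 Broadbean seedlings infested with adult mites were sprayed with compound (acetone/methanol stock diluted in 0.1% Tween 80 water) by airbrush at 0.7 kg/cm^2, 0.5 ml. Three replicates were run. Mortality was scored after 72 hrs.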

[9] = system: wheat powdery mildew; assay: protectant activity in vivo against wheat powdery mildew; details: Triticum aestivum, 168 h
[10] = concentration of 400 and 100 ppm; cited from earlier work
[11] = concentration of 50 ppm; cited from earlier work
[12] = contrastive test, read-out: Insecticidal activity against peach aphid (%)

With `CCc1ncnc(NCCc2ccc(Oc3ccc(Cl)nn3)cc2)c1Cl` [Compound I-3309] the pest or weed control at 3.125 µg/mL ([1]; read-out: control effect against cucumber downy mildew (%), 3.125 mg/L, protectant activity) was 50%, the pest or weed control at 6.25 µg/mL ([1]; read-out: control effect against cucumber downy mildew (%), 6.25 mg/L, protectant activity) was 60% and the pest or weed control at 12.5 µg/mL ([1]; read-out: control effect against cucumber downy mildew (%), 12.5 mg/L, protectant activity) was 70%. It also gave a pest or weed control at 25 µg/mL ([1]; read-out: control effect against cucumber downy mildew (%), 25 mg/L, protectant activity) of 90%, a pest or weed control at 50 µg/mL ([1]; read-out: control effect against cucumber downy mildew (%), 50 mg/L, protectant activity) of 90% and a pest or weed control at 100 µg/mL ([1]; read-out: control effect against cucumber downy mildew (%), 100 mg/L, protectant activity) of 90%. For the same compound, the pest or weed control at 400 µg/mL ([1]; protectant activity) was 100%, the pest or weed control at 25 ppm ([1]; read-out: protectant activity against cucumber downy mildew in vivo, 25 ppm) was 80 to 99% and the pest or weed control at 50 ppm ([1]; read-out: protectant activity against cucumber downy mildew in vivo, 50 ppm) was 80 to 99%. It also gave a pest or weed control at 100 ppm ([1]; read-out: protectant activity against cucumber downy mildew in vivo, 100 ppm) of 80 to 99%, a pest or weed control at 400 ppm ([1]; read-out: protectant activity against cucumber downy mildew in vivo, 400 ppm) of 100% and a pest or weed control at 10 µg/mL ([2]; 10 mg/L) of 60%. For the same compound, the pest or weed control at 100 µg/mL ([2]; 100 mg/L) was 100%, the pest or weed control at 600 µg/mL [2] was 100% and the pest or weed control at 100 ppm ([2]; 100 ppm, mortality after 72 hrs, read-out: control (test results against diamond back moth)) was 100%. The pest or weed control at 600 ppm ([2]; 600 ppm, mortality after 72 hrs, read-out: control (test results against diamond back moth)) was 100%, the pest or weed control at 100 ppm ([3]; read-out: protectant activity against corn rust in vivo, 100 ppm) was 80 to 99% and the pest or weed control at 10 µg/mL [4] was 60%. The pest or weed control at 100 µg/mL [4] was 100%, the pest or weed control at 600 µg/mL [4] was 100% and the pest or weed control at 100 ppm ([4]; 100 ppm, mortality after 72 h) was 100%. It also gave a pest or weed control at 600 ppm ([4]; 600 ppm, mortality after 72 h) of 100%, an inhibition at 25 ppm [5] of 80 to 99% and a pest or weed control at 1.25 µg/mL ([6]; 1.25 mg/L, contrastive test, read-out: Insecticidal activity against peach aphid (%)) of 48%. For the same compound, the pest or weed control at 2.5 µg/mL [6, 12] was 96%, the pest or weed control at 5 µg/mL [6, 12] was 100% and the pest or weed control at 10 µg/mL [6, 12] was 100%. The pest or weed control at 100 µg/mL [6, 12] was 100%, the pest or weed control at 600 µg/mL [6, 12] was 100% and the pest or weed control at 10 ppm ([6]; 10 ppm, death rate after 48 hrs) was 100%. For the same compound, the pest or weed control at 100 ppm ([6]; 100 ppm, death rate after 48 hrs) was 100%, the pest or weed control at 600 ppm ([6]; 600 ppm, death rate after 48 hrs) was 100% and the inhibition at 25 ppm [7] was 80 to 99%. The pest or weed control at 100 ppm ([8]; 100 ppm, mortality after 72 hrs) was 80 to 99%, the pest or weed control at 600 ppm ([8]; 600 ppm, mortality after 72 hrs) was 80 to 99% and the pest or weed control at 400 ppm ([9]; read-out: protectant activity against wheat powdery mildew in vivo, 400 ppm) was 100%.
In the case of `Clc1ccc(Oc2ccc(CCNc3ncnc4ccccc34)cn2)cc1` [CK18, reference compound], the pest or weed control at 25 µg/mL ([3]; read-out: control effect against corn rust (%), 25 mg/L, protectant activity) is reported as 0%, the pest or weed control at 100 µg/mL ([3]; read-out: control effect against corn rust (%), 100 mg/L, protectant activity) is reported as 30% and the pest or weed control at 400 µg/mL ([3]; protectant activity) is reported as 80%. It also gave a pest or weed control at 10 µg/mL [4] of 14%, a pest or weed control at 100 µg/mL [4] of 43% and a pest or weed control at 600 µg/mL [4] of 100%. It also gave an inhibition at 8.3 ppm ([5]; read-out: inhibition rate against rice blast, 8.3 ppm, in vitro) of 0%, a pest or weed control at 2.5 µg/mL [6, 12] of 0% and a pest or weed control at 5 µg/mL [6, 12] of 7%. It also gave a pest or weed control at 10 µg/mL [6, 12] of 51%, a pest or weed control at 100 µg/mL [6, 12] of 71% and a pest or weed control at 600 µg/mL [6, 12] of 100%. For the same compound, the fungicidal activity [10] was “good fungicidal activity” and the insectcidal activity [11] was “good insectcidal activity”.
`CCC(Nc1nc(Cl)nc(C(=O)OC)c1Cl)c1ccc(Oc2ncc(C(F)(F)F)cc2Cl)cc1` (centres unmarked) [CK35, reference compound] showed a pest or weed control at 400 µg/mL ([1]; protectant activity) of 60%, a pest or weed control at 600 µg/mL [2] of 0% and a pest or weed control at 400 µg/mL ([3]; protectant activity) of 0%. The pest or weed control at 600 µg/mL [4] was 0%, the inhibition at 25 ppm [5] was < 50% and the pest or weed control at 600 µg/mL [6, 12] was 0%. The inhibition at 25 ppm [7] was 0%, the pest or weed control at 600 µg/mL ([8]; 600 mg/L, contrastive test, read-out: Insecticidal activity against carmine spider mite (% )) was 0% and the pest or weed control at 400 µg/mL ([9]; read-out: control effect against wheat powdery mildew (%), 400 mg/L, protectant activity) was 0%.
